Assay [1] concerns HUVEC. Kind of assay: Antiangiogenic activity against HUVEC cells assessed as inhibition of cell growth incubated for 44 hrs by Alamar Blue fluorescence assay. To be noted: Homo sapiens. The class given is functional.
The nature of assay [2]: Antiangiogenic activity against human HREC cells assessed as inhibition of cell growth incubated for 44 hrs by Alamar Blue fluorescence assay. The class given is functional.

Broadly, the GI50 is the concentration giving 50% growth inhibition. For `COc1cc(O)c(OC)c2c1C[C@@H](Cc1ccc(O)cc1)CO2`, the GI50 in assay [1] and in assay [2] was more than 100 µM throughout.
With `COc1cc2c(c(O)c1OC)CC(Cc1ccc(O)cc1)CO2` (stereo unspecified), the GI50 in assay [1] was 90.1 µM; in assay [2] it was 3.47 µM.
For `COc1cc(OC)c2c(c1O)OCC(Cc1ccc(O)cc1)C2` (stereo unspecified), in that order: more than 100 µM and 28.3 µM.
For `COc1c(O)cc2c(c1OC)C[C@H](Cc1ccc(O)cc1)CO2`, the GI50 in assay [1] and in assay [2] was more than 100 µM in each case.
As to `COc1cc(O)c2c(c1OC)OCC(Cc1ccc(O)cc1)C2` (stereo unspecified), the GI50 in assay [1] and in assay [2] was more than 100 µM in each case.
For the molecule `COc1cc2c(c(OC)c1O)CC(Cc1ccc(O)cc1)CO2` (stereo unspecified), the GI50 in assay [1] is more than 100 µM; in assay [2], 0.96 µM.
For `COc1c(O)cc2c(c1OC)CC(Cc1ccc(O)cc1)CO2` (stereo unspecified), in that order: more than 100 µM and more than 100 µM.
In the same order, the values of `COc1c(O)cc2c(c1OC)C[C@@H](Cc1ccc(O)cc1)CO2` are more than 100 µM and more than 100 µM.

The values are drawn from ChEMBL document CHEMBL5226366, “Synthesis and Structure Revision of Naturally Occurring Homoisoflavane (+)-Dracaeconolide B” (2023).
